Reference: patent US20140127269A1, “Anti-Inflammatory Peptide Derived From Thrombospondin-1 and Uses Thereof” (THE SCHEPENS EYE RESEARCH INSTITUTE, INC., priority 2012, published 2014)

What was measured:
[1] = test system: experimental mouse model of autoimmune uveitis (IRBP-immunized mice); assay: Experimental autoimmune uveitis, topical peptide treatment, clinical disease score and lymph node Th17/Treg transcription factor message; format: in vivo, C57BL/6 mice; conditions: for disease severity / ocular inflammation (clinical disease score): topical 10 microgram per mouse (5 microgram per eye) once per day, day 1 to 7, scored for 26 days, compared to control peptide
Protocol: (§1) The expansion of Treg cells and the reduction of inflammatory effector cells was evaluated in an experimental mouse model of autoimmune uveitis to determine if the TSP-1 peptide reduced disease severity. […] The inflammatory response in the retina is monitored and scored regularly on the basis of severity by examining the fundus.
For topical administration, 10 microgram per mouse (5 microgram per eye) was administered for the duration of 7 days. TSP peptide was administered topically once per day for 7 days post-immunization with IRBP-CFA. 1 microgram per microliter solution was used for the eye drops, i.e., 0.1% solution used as 5 microliter per eye resulting in total 10 microliter (10 microgram) per mouse. A liquid formulation was used in topical application as well as when peptide was administered intraperitoneally.
C57BL/6 mice were immunized subcutaneously, on day 0, with 200 microgram IRBP in complete Freund's adjuvant per mouse followed by i.p. injection of Pertussis toxin (0.1 microgram). From day 1 to day 7 pos-immunization total 10 microgram of control or TSP-peptide was administered topically (5 micrograms/5 microliters per eye). Clinical disease score was recorded for the 26 days post-immunization.

[2] = test system: experimental mouse model of autoimmune uveitis (IRBP-immunized mice); assay: Experimental autoimmune uveitis, i.p. peptide treatment, clinical disease score; format: in vivo, C57BL/6 mice; conditions: i.p. 10 microgram on day 1, 3 and 5 post-immunization; scored for 26 days; compared to control peptide
Protocol: as §1
C57BL/6 mice were immunized subcutaneously, on day 0, with 200 microgram IRBP in complete Freund's adjuvant per mouse followed by i.p. injection of Pertussis toxin (0.1 microgram). On day 1, 3 and 5 post-immunization mice received i.p. injection of 10 microgram of either control or TSP-peptide. Clinical disease score was recorded for the 26 days post-immunization.

CD4+CD25− T cells = assay: Treg induction from anti-CD3-activated CD4+CD25- T cells in vitro (flow cytometry, TGFbeta ELISA); format: cell-based
Protocol: Purified CD4+CD25− T cells were stimulated with plate-bound anti-CD3 antibody for 48 hr at 37 degrees C. in the presence of 10 microM TSP-peptide or control peptide. Activated T cells were washed and subjected to 2 cycles of amplification, 48 hr each, in the presence of T cell growth factor IL-2 (50 U/ml). Proliferated T cells were then stained using fluorochrome-conjugated antibodies to label surface CD4 and CD25 and intracellular Foxp3. Stained cells were analyzed using a flow cytometer. Culture supernatants collected from cells after initial 48 hr culture were tested for the content of TGFbeta using an ELISA.

[3] = test system: CD4+ T cells derived from the spleen and lymph node; assay: Treg and inflammatory effector cells in ova/CFA-immunized mice (flow cytometry); format: in vivo; conditions: 10 μg on day 1, 3 and 5 post-immunization, analysed day 7; compared to control peptide
Protocol: To determine if such an expansion of Treg cells by TSP-peptide is possible in vivo, and whether it can reduce the typical IL-17 or IFNγ-producing inflammatory effectors, mice were immunized with an ovalbumin (ova) antigen in Complete Freund's Adjuvant (CFA). This is a commonly used experimental approach to generate antigen-specific inflammatory effectors. These ova-immunized mice were treated with either control or TSP-peptide (10 μg; SEQ ID NO:1) on day 1, 3 and 5 post-immunization. On day 7 post-immunization, the CD4+ T cells derived from the spleen and lymph node of these mice were analyzed by flow cytometry to determine the numbers of Foxp3+ Treg cells and the expression patterns of the inflammatory cytokines, IL-17 and […].
Lymph nodes were harvested from immunized mice treated with either control or TSP-peptide 7 days post-immunization. Lymph node cells were cultured in the presence of PMA (10 ng/ml), ionomycin (200 ng/ml) and Brefeldin A for 20 hr at 37 degrees C. Cell surface CD4 and CD25 and intracellular Foxp3, IFNgamma and IL-17 were detected using fluorochrome-conjugated antibodies followed by flow cytometric analysis.

[4] = topical treatment, relative to control peptide

KRFYVVMWKK (listed as Homo sapiens) [4N1K, 4N1 flanked with 2 Lys residues]
disease severity / ocular inflammation (clinical disease score) [1]: significantly reduced | disease severity / ocular inflammation (clinical disease score) ([1]; listed as TSP-1 peptide): reduction of ocular inflammation | anti-inflammatory Treg cells in the lymph nodes (transcriptional factor message) [1, 4]: enhancement | pro-inflammatory Th17 cells in the lymph nodes (transcriptional factor message) [1, 4]: decline | disease severity (clinical disease score) [2]: significantly reduced | number of cells expressing Foxp3 and CD25 (CD4+CD25− T cells; 10 microM peptide, 48 hr anti-CD3 activation, then 2 cycles IL-2, compared to control peptide (4NGG)): significantly increased | synthesis of immunosuppressive cytokine TGF-β1 (CD4+CD25− T cells; 10 microM peptide, culture supernatant after initial 48 hr, ELISA): increased | induction of Treg cells in vitro (CD4+CD25− T cells; in vitro): effectively induces Treg cells | numbers of Foxp3-expressing Treg cells [3]: increased numbers | numbers of IFN-γ-expressing CD4 effectors [3]: reduced numbers | numbers of IL-17-expressing CD4 effectors [3]: reduced numbers
